Assay results from PubChem BioAssay (NCI).
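96-well plates; 48 h exposure; 5 concentrations. Endpoints by linear interpolation between flanking doses. Not reached: highest tested concentration assigned. The concentration for full growth arrest is given as TGI.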

What was measured:
Experiment in all cases: DTP human tumour cell line panel, 48 h
[1] = tested on: EKVX NSCLC
[2] = tested on: IGROV1 ovarian
[3] = tested on: SNB-75 CNS
[4] = tested on: SK-OV-3 ovarian
[5] = tested on: NCI-H226 lung
[6] = tested on: OVCAR-8 ovarian
[7] = tested on: SF-539 CNS
[8] = tested on: RPMI-8226 leukemia
[9] = tested on: TK-10 renal
[10] = tested on: MOLT-4 leukemia
[11] = tested on: UACC-257 melanoma
[12] = tested on: SN12C renal
[13] = tested on: OVCAR-3 ovarian
[14] = tested on: MCF7 breast
[15] = tested on: MDA-N
[16] = tested on: NCI-H460 lung
[17] = tested on: SNB-19 CNS
[18] = tested on: NCI/ADR-RES ovarian
[19] = tested on: BT-549 breast
[20] = tested on: DU-145 prostate
[21] = tested on: K-562 leukemia
[22] = tested on: NCI-H522 lung
[23] = tested on: SF-295 CNS
[24] = tested on: RXF 393 renal
[25] = tested on: MDA-MB-231 breast
[26] = tested on: COLO 205 colon
[27] = tested on: 786-0 renal
[28] = tested on: CCRF-CEM leukemia
[29] = tested on: OVCAR-4 ovarian
[30] = tested on: M14 melanoma
[31] = tested on: ACHN renal
[32] = tested on: SW-620 colon
[33] = tested on: SK-MEL-28 melanoma
[34] = tested on: HCT-15 colon
[35] = tested on: OVCAR-5 ovarian
[36] = tested on: HT29 colon
[37] = tested on: SK-MEL-2 melanoma
[38] = tested on: HOP-62 NSCLC
[39] = tested on: MDA-MB-435
[40] = tested on: LOX IMVI melanoma
[41] = tested on: KM12 colon
[42] = tested on: HCT-116 colon
[43] = tested on: HCC-2998 colon
[44] = tested on: HOP-92 NSCLC
[45] = tested on: SF-268 CNS
[46] = tested on: PC-3 prostate
[47] = tested on: A498 renal
[48] = tested on: CAKI-1 renal
[49] = tested on: HL-60(TB) leukemia
[50] = tested on: UACC-62 melanoma
[51] = tested on: T-47D breast
[52] = tested on: U251 CNS
[53] = tested on: NCI-H23 lung
[54] = tested on: HS 578T breast
[55] = tested on: MALME-3M melanoma
[56] = tested on: A549 NSCLC
[57] = tested on: UO-31 renal
[58] = tested on: SK-MEL-5 melanoma

Measured: TGI

O=c1cc(N2CCOCC2)[nH]c(=O)n1-c1cccc(Cl)c1
not listed: [56] | [57] | [58]
> 100 µM: all other assays above

COc1ccc(-n2cnc3c(N)nc(N)nc32)cc1
87 µM: [54]
77.9 µM: [3]
not listed: [16] | [21] | [40] | [49]
> 100 µM: all other assays above

C[C@@H]1OC(=O)C[C@H]2CC(=O)N(CCC3CN(C(=O)c4ccccc4)c4ccccc43)C[C@@H]21 (stereo partly specified)
not listed: [5] | [7] | [12] | [28] | [40] | [49]
> 100 µM: all other assays above
